Common to all, as to type: cell-based
The subject of experiment [1] is Escherichia coli ATCC 11229. The experiment can be described thus: Aqueous suspension (solution) test, antimicrobial vent gas bubbled through broth. As to conditions: E. coli ATCC 11229, POAA in CO2 gas bubbled through 10 ml bacteria solution. How it is done: (§1) Exposure times of 30 seconds and two minutes were tested.
Experiment [2] deals with Staphylococcus aureus ATCC 6538. The description is as above. As to conditions: S. aureus ATCC 6538, POAA in CO2 gas bubbled through 10 ml bacteria solution. The protocol: as §1
Experiment [3] deals with Escherichia coli ATCC 11229. Briefly: Hard surface test, stainless steel coupon exposed to vent gas in closed vessel. As to conditions: E. coli ATCC 11229, vent gas five minutes. The protocol:
(§2) The efficacy of peroxyacetic acid antimicrobial delivered via CO2 gas was tested in a hard surface test against Escherichia coli and Staphylococcus aureus.
(§3) The coupons were exposed to the peroxyacetic acid antimicrobial vent gas for five minutes. Dry and wet methods were used for the testing. In the dry method, a dry film was generated on the coupon by adding a 20 μl suspension onto the coupon surface and drying the solution prior to the experiment. In the wet method, the 20 μl suspension was added to the coupon surface immediately before placing the coupon in the syringe and exposing it to the antimicrobial gas. After exposure to the antimicrobial gas for a set time period, the coupon was removed and placed in an appropriate neutralizer to stop the antimicrobial chemical activity. The bacteria remaining on the coupons were then incubated and the population reduction was determined.

Experiment [4] relates to Staphylococcus aureus ATCC 6538. The description is as above. As to conditions: S. aureus ATCC 6538, vent gas five minutes. How it is done:
as §2, §3

[5] abbreviates: exposure 2 minutes, listed as peroxyacetic acid.
[6] abbreviates: dry method (dry bacterial film on coupon).
The mark [7] stands for this setting: wet method (20 μl bacterial suspension on coupon).

The structures appear in SMILES notation.

For `CC(=O)OO` [POAA, peroxyacetic acid], the “Log Reduction” value in experiment [1] (exposure 30 seconds) is given as 1.1 log; in experiment [1] (exposure 2 minutes) it was 6.1 log; in experiment [1] (setting [5]), “greater than 6 log”; in experiment [2] (exposure 30 seconds) it was 2.5 log; in experiment [2] (exposure 2 minutes), 6.3 log; in experiment [2] (setting [5]), “greater than 6 log”. Moreover, the “Log Reduction” value in experiment [3] (setting [6]) amounted to 6.5 log; in experiment [3] (setting [7]), 6.5 log; in experiment [4] (setting [6]), 5.5 log; in experiment [4] (setting [7]) it was 5.5 log.

The values are drawn from patent US6962714B2, “Critical fluid antimicrobial compositions and their use and generation” (priority 2002, dated 2005).
